Data taken from patent publication US20260242418A1, “CYCLIC PEPTIDES WITH ANTIBACTERIAL ACTIVITY AGAINST MULTIDRUG RESISTANT (MDR) PATHOGENS” (priority 2022, published 2026).
Converted amounts (≈) assume the structure as drawn.

Assays:
[1] = system: Enterococcus faecalis; assay type: cell-based; details: 15 strains
Excerpt: (§1) The Minimum Inhibitory Concentration (MIC) of PLP-3 peptide (SEQ D NO: 4) against a collection of clinically relevant Gram-positive bacterial strains was obtained via broth microdilution. The tested species Staphylococcus aureus, Enterococcus faecium and Enterococcus faecalis. The followed protocol was based on the Clinical & Laboratory Standards Institute (CLSI) and EUCAST Guidelines.
(§2) In these tests, MIC is the value defined as the lowest concentration of an antimicrobial which inhibits the macroscopic growth of a bacterial strain after 16-20 hours of incubation at 37° C. The results of this assay were obtained by visual identification of bacterial growth at the bottom of each well plate. Since the wells contained decreasing concentrations of the peptide, the final result was indicated as a concentration, MIC, expressed in μg/mL of the PLP-3.
(§3) Bacterial strains were streaked in Columbia Agar plates (Columbia Agar with 5% Sheep Blood 90 mm Stacker plates, Becton Dickinson) and incubated overnight at 37° C. Polypropylene round bottomed 96-well plates were filled with 50 μL/well of Cation Adjusted Mueller-Hinton Broth (CAMHB, 90922, 500 g, Sigma-Aldrich) and 50 μL of PLP-3 (at 4 times higher the chosen initial concentration of the test) were added to the first well of each row of the plate followed by 1:2 serial dilutions up until the 10th column of the plate. The 11th and 12th columns were used for positive and negative growth controls.
(§4) Stain inoculums were standardized by preparing a 1:100 dilution of 0.5 McFarland solutions in CAMHB. Plates were inoculated with 50 μL of the diluted inoculums and covered with an adhesive film before 16-20 hours of incubation at 37° C.
(§5) Two biological and two technical replicates were performed per strain.
(§6) Broth microdilution testing from a panel of clinical strains of each specie provided MIC50 and […] values (Table 7). Strains were either from clinical origin, relevant to current clinical situation, or commercially available strains belonging to the American Type Culture Collection (ATCC), S. aureus 29213. Regarding clinical strains collection, 10 out of the 19 S. aureus strains were resistant to methicillin (MRSA), and 11 out of the 22 E. faecium strains were resistant to Vancomycin (VRE).
(§7) MIC50 value represents the antimicrobial concentration value that inhibits the growth of 50% of the bacterial strain panel. […] value represents the antimicrobial concentration value that inhibits the growth of 90% the bacterial strain collection.

[2] = system: Enterococcus faecium; assay type: cell-based; details: 22 strains (11/22 VRE)
Excerpt: as §1, §2, §3, §4, §5, §6, §7

[3] = system: Staphylococcus aureus; assay type: cell-based; details: 19 strains (10/19 MRSA)
Excerpt: as §1, §2, §3, §4, §5, §6, §7

[4] = system: A. baumannii 8 clinical strain; experiment: Time-kill curves; assay type: cell-based, Acinetobacter baumannii
Description: (§8) Time-kill curves (TKC) determine the in vitro antimicrobial activity of a compound, monitoring the bacterial growth over a certain period of time.
(§9) This assay was performed for two Acinetobacter baumannii strains (a clinical strain and ATCC 19606 strain) and one Pseudomonas aeruginosa ATCC 27853 strain, monitoring its growth during 24 hours at different PLP-3 (SEQ ID NO: 4) concentrations: MIC, 2×MIC, 4×MIC, 8×MIC. Moreover, in each TKC assay a negative and a positive growth control was stablished.
(§10) In different 13MI tubes, a certain concentration of PLP-3 peptide, Mueller-Hinton Broth (MHB, 1214, Condalab) and a fixed inoculum concentration were added. The final inoculum concentration in each tube was […]. Tubes were incubated at 37° C. at 180 rpm during 24 hours. Aliquots of the liquid culture were taken at different times: 0 h, 10 minutes, 30 minutes, 1 h, 2 h, 4 h, 8 h and 24 h. For each taken aliquot, serial dilutions with Phosphate Saline Buffer 1× (PBS 1×) were made and streaked in Luria-Bertani Agar (LB, 1083, Condalab). LB Agar plates were incubated at 37° C. during 18-22 hours. Grown colonies in LB Agar were counted in order to quantify the inoculum in each time period.
(§11) Three biological replicates were performed for each strain, and the mean and standard deviation was determined each time.

[5] = system: A. baumannii ATCC 19606; experiment: Time-kill curves; assay type: cell-based, Acinetobacter baumannii
Description: as §8, §9, §10, §11

[6] = time-kill curves over 24 hours, MIC to 8xMIC

With `CC(C)C[C@@H]1NC(=O)[C@H](CCCNC(=N)N)NC(=O)[C@H](CCCNC(=N)N)NC(=O)[C@H](CCCNC(=N)N)NC(=O)[C@H]2CCCN2C(=O)[C@H](CCCNC(=N)N)NC(=O)[C@H](CCCNC(=N)N)NC(=O)[C@H](C(C)C)NC(=O)[C@@H]2CSSC[C@H](NC1=O)C(=O)N[C@@H](Cc1ccccc1)C(=O)N[C@@H](C(C)C)C(=O)N[C@@H](CCCNC(=N)N)C(=O)N1CCC[C@@H]1C(=O)N[C@@H](CCCCN)C(=O)N[C@@H](Cc1ccccc1)C(=O)N[C@@H](C(C)C)C(=O)N[C@@H](C(C)C)C(=O)N2` [PLP-3, cyclo[RRRLCFVRPKFVVCVRRP]] the MIC50 [1] was 4 µg/mL (≈ 1.76 µM), the MIC90 [1] was 4 µg/mL (≈ 1.76 µM) and the MIC50 [2] was 2 µg/mL (≈ 0.882 µM). The MIC90 [2] was 2 µg/mL (≈ 0.882 µM), the MIC50 [3] was 4 µg/mL (≈ 1.76 µM) and the MIC90 [3] was 8 µg/mL (≈ 3.53 µM). For the same compound, the “log(CFU/mL) Mean” value ([4]; 2xMIC (4 μg/mL), 0.00 h) was 5.60 log(CFU/mL), the “log(CFU/mL) Mean” value ([4]; 2xMIC (4 μg/mL), 0.17 h) was 5.56 log(CFU/mL) and the “log(CFU/mL) Mean” value ([4]; 2xMIC (4 μg/mL), 0.50 h) was 4.92 log(CFU/mL). The “log(CFU/mL) Mean” value ([4]; 2xMIC (4 μg/mL), 1.00 h) was 4.20 log(CFU/mL), the “log(CFU/mL) Mean” value ([4]; 2xMIC (4 μg/mL), 2.00 h) was 2.74 log(CFU/mL) and the “log(CFU/mL) Mean” value ([4]; 2xMIC (4 μg/mL), 4.00 h) was 1.89 log(CFU/mL). The “log(CFU/mL) Mean” value ([4]; 2xMIC (4 μg/mL), 8.00 h) was 1.05 log(CFU/mL), the “log(CFU/mL) Mean” value ([4]; 2xMIC (4 μg/mL), 24.00 h) was 1.49 log(CFU/mL) and the “log(CFU/mL) Mean” value ([4]; 4xMIC (8 μg/mL), 0.00 h) was 5.60 log(CFU/mL). For the same compound, the “log(CFU/mL) Mean” value ([4]; 4xMIC (8 μg/mL), 0.17 h) was 5.30 log(CFU/mL), the “log(CFU/mL) Mean” value ([4]; 4xMIC (8 μg/mL), 0.50 h) was 4.11 log(CFU/mL) and the “log(CFU/mL) Mean” value ([4]; 4xMIC (8 μg/mL), 1.00 h) was 2.74 log(CFU/mL). For the same compound, the “log(CFU/mL) Mean” value ([4]; 4xMIC (8 μg/mL), 2.00 h) was 0.00 log(CFU/mL), the “log(CFU/mL) Mean” value ([4]; 4xMIC (8 μg/mL), 4.00 h) was 0.00 log(CFU/mL) and the “log(CFU/mL) Mean” value ([4]; 4xMIC (8 μg/mL), 8.00 h) was 0.00 log(CFU/mL). For the same compound, the “log(CFU/mL) Mean” value ([4]; 4xMIC (8 μg/mL), 24.00 h) was 0.00 log(CFU/mL), the “log(CFU/mL) Mean” value ([4]; 8xMIC (16 μg/mL), 0.00 h) was 5.60 log(CFU/mL) and the “log(CFU/mL) Mean” value ([4]; 8xMIC (16 μg/mL), 0.17 h) was 4.45 log(CFU/mL). For the same compound, the “log(CFU/mL) Mean” value ([4]; 8xMIC (16 μg/mL), 0.50 h) was 0.00 log(CFU/mL), the “log(CFU/mL) Mean” value ([4]; 8xMIC (16 μg/mL), 1.00 h) was 0.00 log(CFU/mL) and the “log(CFU/mL) Mean” value ([4]; 8xMIC (16 μg/mL), 2.00 h) was 0.00 log(CFU/mL). For the same compound, the “log(CFU/mL) Mean” value ([4]; 8xMIC (16 μg/mL), 4.00 h) was 0.00 log(CFU/mL), the “log(CFU/mL) Mean” value ([4]; 8xMIC (16 μg/mL), 8.00 h) was 0.00 log(CFU/mL) and the “log(CFU/mL) Mean” value ([4]; 8xMIC (16 μg/mL), 24.00 h) was 0.00 log(CFU/mL). The “log(CFU/mL) Mean” value ([4]; MIC (2 μg/mL), 0.00 h) was 5.60 log(CFU/mL), the “log(CFU/mL) Mean” value ([4]; MIC (2 μg/mL), 0.17 h) was 5.63 log(CFU/mL) and the “log(CFU/mL) Mean” value ([4]; MIC (2 μg/mL), 0.50 h) was 5.18 log(CFU/mL). For the same compound, the “log(CFU/mL) Mean” value ([4]; MIC (2 μg/mL), 1.00 h) was 4.55 log(CFU/mL), the “log(CFU/mL) Mean” value ([4]; MIC (2 μg/mL), 2.00 h) was 3.56 log(CFU/mL) and the “log(CFU/mL) Mean” value ([4]; MIC (2 μg/mL), 4.00 h) was 2.54 log(CFU/mL). For the same compound, the “log(CFU/mL) Mean” value ([4]; MIC (2 μg/mL), 8.00 h) was 2.90 log(CFU/mL), the “log(CFU/mL) Mean” value ([4]; MIC (2 μg/mL), 24.00 h) was 4.67 log(CFU/mL) and the “bactericidal or bacteriostatic activity” value [4, 6] was “bactericidal effect”. The “log(CFU/mL) Mean” value ([5]; 2xMIC (4 μg/mL), 0.00 h) was 5.87 log(CFU/mL), the “log(CFU/mL) Mean” value ([5]; 2xMIC (4 μg/mL), 0.17 h) was 5.54 log(CFU/mL) and the “log(CFU/mL) Mean” value ([5]; 2xMIC (4 μg/mL), 0.50 h) was 4.91 log(CFU/mL). For the same compound, the “log(CFU/mL) Mean” value ([5]; 2xMIC (4 μg/mL), 1.00 h) was 3.14 log(CFU/mL), the “log(CFU/mL) Mean” value ([5]; 2xMIC (4 μg/mL), 2.00 h) was 2.18 log(CFU/mL) and the “log(CFU/mL) Mean” value ([5]; 2xMIC (4 μg/mL), 4.00 h) was 2.58 log(CFU/mL). For the same compound, the “log(CFU/mL) Mean” value ([5]; 2xMIC (4 μg/mL), 8.00 h) was 2.56 log(CFU/mL), the “log(CFU/mL) Mean” value ([5]; 2xMIC (4 μg/mL), 24.00 h) was 3.30 log(CFU/mL) and the “log(CFU/mL) Mean” value ([5]; 4xMIC (8 μg/mL), 0.00 h) was 5.87 log(CFU/mL). For the same compound, the “log(CFU/mL) Mean” value ([5]; 4xMIC (8 μg/mL), 0.17 h) was 5.12 log(CFU/mL), the “log(CFU/mL) Mean” value ([5]; 4xMIC (8 μg/mL), 0.50 h) was 3.79 log(CFU/mL) and the “log(CFU/mL) Mean” value ([5]; 4xMIC (8 μg/mL), 1.00 h) was 0.94 log(CFU/mL). The “log(CFU/mL) Mean” value ([5]; 4xMIC (8 μg/mL), 2.00 h) was 0.00 log(CFU/mL), the “log(CFU/mL) Mean” value ([5]; 4xMIC (8 μg/mL), 4.00 h) was 0.00 log(CFU/mL) and the “log(CFU/mL) Mean” value ([5]; 4xMIC (8 μg/mL), 8.00 h) was 0.00 log(CFU/mL). For the same compound, the “log(CFU/mL) Mean” value ([5]; 4xMIC (8 μg/mL), 24.00 h) was 0.00 log(CFU/mL), the “log(CFU/mL) Mean” value ([5]; 8xMIC (16 μg/mL), 0.00 h) was 5.87 log(CFU/mL) and the “log(CFU/mL) Mean” value ([5]; 8xMIC (16 μg/mL), 0.17 h) was 3.41 log(CFU/mL). The “log(CFU/mL) Mean” value ([5]; 8xMIC (16 μg/mL), 0.50 h) was 0.87 log(CFU/mL), the “log(CFU/mL) Mean” value ([5]; 8xMIC (16 μg/mL), 1.00 h) was 0.00 log(CFU/mL) and the “log(CFU/mL) Mean” value ([5]; 8xMIC (16 μg/mL), 2.00 h) was 0.00 log(CFU/mL). The “log(CFU/mL) Mean” value ([5]; 8xMIC (16 μg/mL), 4.00 h) was 0.00 log(CFU/mL), the “log(CFU/mL) Mean” value ([5]; 8xMIC (16 μg/mL), 8.00 h) was 0.00 log(CFU/mL) and the “log(CFU/mL) Mean” value ([5]; 8xMIC (16 μg/mL), 24.00 h) was 0.00 log(CFU/mL). The “log(CFU/mL) Mean” value ([5]; MIC (2 μg/mL), 0.00 h) was 5.87 log(CFU/mL), the “log(CFU/mL) Mean” value ([5]; MIC (2 μg/mL), 0.17 h) was 5.85 log(CFU/mL) and the “log(CFU/mL) Mean” value ([5]; MIC (2 μg/mL), 0.50 h) was 5.43 log(CFU/mL). The “log(CFU/mL) Mean” value ([5]; MIC (2 μg/mL), 1.00 h) was 4.01 log(CFU/mL), the “log(CFU/mL) Mean” value ([5]; MIC (2 μg/mL), 2.00 h) was 2.39 log(CFU/mL) and the “log(CFU/mL) Mean” value ([5]; MIC (2 μg/mL), 4.00 h) was 3.05 log(CFU/mL). For the same compound, the “log(CFU/mL) Mean” value ([5]; MIC (2 μg/mL), 8.00 h) was 3.85 log(CFU/mL), the “log(CFU/mL) Mean” value ([5]; MIC (2 μg/mL), 24.00 h) was 5.17 log(CFU/mL) and the “bactericidal or bacteriostatic activity” value [5, 6] was “bactericidal effect”.
